ChEMBL document CHEMBL5620382, “Fluoroindole chalcone analogues targeting the colchicine binding site of tubulin for colorectal oncotherapy” (Eur J Med Chem, 2023)
The source made the active and inactive calls. No cut-off for these calls is given here.

How the values were obtained:
Mus musculus [1] = assay: Antitumor activity against C57B/6-APCmin/+ mouse model assessed as increase in phosphorylation of eIF2alpha in tumors at 3 mg/kg, ip treated for 45 days relative to control; assay type: functional, organism-based; details: time 45.0 day
[2] = Toxicity in BALB/c mouse xenografted with human HCT116 cells assessed as side effects at 1.5 to 3 mg/kg, ip thrice a week for three weeks; assay type: organism-based, HCT-116; details: in vivo, 504 h, dose 1.5-3 mg/kg, time 3 weeks
Mus musculus [3] = assay: Antitumor activity against C57B/6-APCmin/+ mouse model assessed as increase in phosphorylation of IRE1alpha in tumors at 3 mg/kg, ip treated for 45 days relative to control; assay type: functional, organism-based; details: time 45.0 day
CT26 [4] = assay: Induction of endoplasmic reticulum (ER) stress in mouse CT26 cells assessed as increase in ROS level at 20 nM measured after 24 hrs by fluorescent analysis (reference value: 14%); assay type: functional
HCT-116 [5] = assay: Induction of endoplasmic reticulum (ER) stress in human HCT-116 cells assessed as increase p-eIF2alpha expression at 10 to 20 nM measured after 24 hrs by Western blot analysis; assay type: functional, cell-based; details: dose 10-20 nM
Homo sapiens = species: Homo sapiens; assay: Binding affinity to tubulin mutant (unknown origin) by MST analysis
HCT-116 [6] = assay: Antiproliferative activity against human HCT116 cells assessed as inhibition of proliferation measured after 24 hrs by CCK-8 assay; assay type: functional, cell-based; details: HCT-116, 24 h
Colon cancer organoid = assay: Antitumor activity against patient-derived Colorectal cancer organoid model assessed as inhibition of organoid growth by immunofluorescence assay; assay type: functional, tissue-based; details: Homo sapiens
CT26 [7] = assay: Induction of cell cycle arrest in mouse CT26 cells […] assessed as accumulation of cells at G2/M phase at 2.5 to 10 nM by flow cytometry analysis; assay type: functional, cell-based; details: dose 2.5-10 nM
CT26 [8] = assay: Induction of endoplasmic reticulum (ER) stress in mouse CT26 cells assessed as increase in ROS level at 2.5 nM measured after 24 hrs by fluorescent analysis (reference value: 14%); assay type: functional
HCT-116 [9] = assay: Induction of endoplasmic reticulum (ER) stress in human HCT-116 cells assessed as increase in ROS level at 10 to 20 nM measured after 24 hrs by DCFH-DA analysis; assay type: functional, cell-based; details: dose 10-20 nM
[10] = Toxicity in C57BL/6-APCmin/+ mouse model assessed as change in body weight at 3 mg/kg, ip treated for 45 days; assay type: organism-based; details: in vivo, 1080 h, time 45 day
HCT-116 [11] = assay: Cytotoxicity against human HCT-116 cells assessed as growth inhibition at 1.25 to 20 uM measured after 24 hrs in presence of ROS scavenger NAC by CCK-8 assay; assay type: functional, cell-based; details: dose 1.25-20 µM
CT26 [12] = assay: Induction of endoplasmic reticulum (ER) stress in mouse CT26 cells assessed as rough long-linear and irregularly dilated with locally verified expansion at 10 to 20 nM measured after 24 hrs by transmission electron microscope (TEM) analysis; assay type: functional, cell-based; details: dose 10-20 nM
NCM460 = assay: Antiproliferative activity against human NCM460 cells assessed as inhibition of proliferation at 2.5 to 20 nM measured after 24 hrs by CCK-8 assay; assay type: toxicity, cell-based; details: ncm460, 24 h, 0.02 µM, dose 2.5-20 nM
Mus musculus [13] = assay: Antitumor activity against C57BL/6-APCmin/+ mouse model assessed as reduction in number of tumors in intestine at 3 mg/kg, ip treated for 45 days relative to control; assay type: functional, organism-based; details: time 45.0 day
HCT-116 [14] = assay: Induction of cell cycle arrest in human HCT-116 cells […] assessed as accumulation of cells at G2/M phase at 2.5 to 10 nM by flow cytometry analysis; assay type: functional, cell-based; details: dose 2.5-10 nM
HCT-116 [15] = assay: Induction of endoplasmic reticulum (ER) stress in human HCT-116 cells assessed as increase p-IRE1alpha expression at 10 to 20 nM measured after 24 hrs by Western blot analysis; assay type: functional, cell-based; details: dose 10-20 nM
HCT-116 [16] = assay: Induction of endoplasmic reticulum (ER) stress in human HCT-116 cells assessed as increase p-PERK expression at 10 to 20 nM measured after 24 hrs by Western blot analysis; assay type: functional, cell-based; details: dose 10-20 nM
HCT-116 [17] = assay: Induction of endoplasmic reticulum (ER) stress in human HCT-116 cells assessed as increase in ROS level at 10 nM measured after 24 hrs by fluorescent analysis (reference value: 12%); assay type: functional
Tubulin (Homo sapiens) [18] = target: T1, Tubulin (Homo sapiens) (UniProt P68371+Q9H4B7+P0DPH7+P68366+Q13509+Q71U36+P04350+Q3ZCM7+P07437+P68363+Q9BQE3+Q6PEY2+Q13885+Q9BVA1+Q9BUF5); assay: Induction of microtubule stabilization in human HCT-116 cells at […] using 1:300 ratio of cell lysate/pronase incubated for 2 hrs by drug affinity reactive target stabilization (DARTS) assay; assay type: subcellular
HCT-116 [19] = assay: Induction of apoptosis in human HCT116 cells assessed as dead cells at 2.5 to 20 nM measured after 24 hrs by PI/Annexin V-FITC staining based flow cytometry; assay type: functional, cell-based; details: dose 2.5-20 nM
CT26 [20] = assay: Antiproliferative activity against mouse CT26 cells assessed as dead cells at 2.5 to 40 nM measured after 24 hrs by Calcein-AM/PI staining based immunofluorescence analysis; assay type: functional, cell-based; details: dose 2.5-40 nM
HCT-116 [21] = assay: Anti-tumor activity against human HCT-116 cells xenografted in BALB/c mouse assessed as apoptosis in tumor section at 3 mg/kg, ip thrice a week for three weeks by TUNEL staining based assay; assay type: functional, organism-based; details: time 3.0 weeks
CT26 [22] = assay: Induction of endoplasmic reticulum (ER) stress in mouse CT26 cells assessed as increase in ROS level at 10 nM measured after 24 hrs by fluorescent analysis (reference value: 14%); assay type: functional
PC-12 = assay: Antiproliferative activity against rat PC12 cells assessed as inhibition of proliferation at 2.5 to 20 nM measured after 24 hrs by CCK-8 assay; assay type: toxicity, cell-based; details: pc-12, 24 h, 0.02 µM, dose 2.5-20 nM
[23] = Toxicity in BALB/c mouse xenografted with human HCT-116 cells assessed as organ toxicity at 3 mg/kg, ip thrice a week for three weeks by […]; assay type: organism-based; details: in vivo, 504 h, time 3 weeks
HCT-116 [24] = assay: Cytotoxicity against human HCT-116 cells assessed as growth inhibition measured after 48 hrs by CCK-8 assay; assay type: functional
[25] = Toxicity in C57B/6-APCmin/+ mouse model assessed as organ toxicity at 3 mg/kg, ip treated for 45 days by H and E staining; assay type: organism-based; details: in vivo, 1080 h, time 45 day
HCT-116 [26] = assay: Induction of endoplasmic reticulum (ER) stress in human HCT-116 cells assessed as increase in ROS level at 20 nM measured after 24 hrs by fluorescent analysis (reference value: 12%); assay type: functional
Tubulin (Homo sapiens) [27] = target: T1, Tubulin (Homo sapiens); assay: Stabilization of microtubule in human HCT-116 cells at […] incubated for 1 hrs by CETSA; assay type: cell-based
HCT-116 [28] = assay: Cytotoxicity against human HCT-116 cells assessed as growth inhibition measured after 24 hrs in presence of GSK2606414 PERK inhibitor by CCK-8 assay; assay type: functional, cell-based
Tubulin = assay: Binding affinity to wild type tubulin (unknown origin) by MST analysis; assay type: protein-complex assay, Homo sapiens
Tubulin (Homo sapiens) [29] = target: T1, Tubulin (Homo sapiens); assay: Inhibition of tubulin polymerization (unknown origin); assay type: protein-complex assay; details: dose 12.5-100 µM

Activity (Homo sapiens): inactive
IC50 (HCT-116 [6]): 4.52 nM
IC50 (Colon cancer organoid): 2.06 nM
Activity (Tubulin (Homo sapiens) [18]): Active
Activity (Tubulin (Homo sapiens) [27]): inactive
Kd (Tubulin): 136 nM
inhibition (Tubulin (Homo sapiens) [29]): Dose-Dependent Effect
SMILES: COc1cc(C(=O)/C(C)=C/c2c[nH]c3cc(F)ccc23)cc(OC)c1OC
Activity (Mus musculus [1]): Active
Activity [2]: Non-Toxic
Activity (Mus musculus [3]): Active
Activity (CT26 [4]): 60.1%
Activity (HCT-116 [5]): Active
Activity (CT26 [7]): Active
Activity (CT26 [8]): 14.5%
Activity (HCT-116 [9]): Active
Activity [10]: Non-Toxic
Activity (HCT-116 [11]): inactive
Activity (CT26 [12]): Active
Activity (NCM460): Non-Toxic
Activity (Mus musculus [13]): Active
Activity (HCT-116 [14]): Active
Activity (HCT-116 [15]): Active
Activity (HCT-116 [16]): Active
Activity (HCT-116 [17]): 73.8%
Activity (HCT-116 [19]): Active
Activity (CT26 [20]): Active
Activity (HCT-116 [21]): Active
Activity (CT26 [22]): 24.4%
Activity (PC-12): Non-Toxic
Activity [23]: Non-Toxic
GI50 (HCT-116 [24]): 79 nM
Activity [25]: Non-Toxic
Activity (HCT-116 [26]): 74.4%
Activity (HCT-116 [28]): inactive
